In patent publication US12514938B2, “Fibroblast activation protein targeting peptides” (PERSPECTIVE THERAPEUTICS, INC., priority 2023, dated 2026):
*1 amine or outer side, *2 acyl side, *3 side chain or, on linkers, in order; H or OH if unused. Where a SMILES comes first, the peptide text is derived from it. Bridges are numbered along the chain shown (N, C = ends). The star is where a group is joined. X1 = NC(=O)CN1CCN(CC(=O)O)CCN(CC(=O)*)CCN(CC(=O)O)CC1; NOTA = O=C(O)CN1CCN(CC(=O)O)CCN(CC(=O)*)CC1; mXylylene = c1cc(C[*:1])cc(C[*:2])c1; oXylylene = c1ccc(C[*:2])c(C[*:1])c1; pXylylene = c1cc(C[*:2])ccc1C[*:1]; PEG4 = NCCOCCOCCOCCOCCC(=O)O; 12Ado = NCCCCCCCCCCCC(=O)O; PEG2 = NCCOCCOCCC(=O)O; Ahx = NCCCCCC(=O)O

How the values were obtained:
[1] = target: T1, Human Fibroblast Activation Protein (FAP) (Homo sapiens, UniProt Q12884); assay: Enzyme inhibition assay against human FAP (substrate Z-GP-AMC), Example 1; assay type: biochemical; conditions: human FAP 5 ng/well, 50 μM Z-GP-AMC; Ki from IC50 by Cheng-Prusoff
T1 sequence (Q12884 1-760): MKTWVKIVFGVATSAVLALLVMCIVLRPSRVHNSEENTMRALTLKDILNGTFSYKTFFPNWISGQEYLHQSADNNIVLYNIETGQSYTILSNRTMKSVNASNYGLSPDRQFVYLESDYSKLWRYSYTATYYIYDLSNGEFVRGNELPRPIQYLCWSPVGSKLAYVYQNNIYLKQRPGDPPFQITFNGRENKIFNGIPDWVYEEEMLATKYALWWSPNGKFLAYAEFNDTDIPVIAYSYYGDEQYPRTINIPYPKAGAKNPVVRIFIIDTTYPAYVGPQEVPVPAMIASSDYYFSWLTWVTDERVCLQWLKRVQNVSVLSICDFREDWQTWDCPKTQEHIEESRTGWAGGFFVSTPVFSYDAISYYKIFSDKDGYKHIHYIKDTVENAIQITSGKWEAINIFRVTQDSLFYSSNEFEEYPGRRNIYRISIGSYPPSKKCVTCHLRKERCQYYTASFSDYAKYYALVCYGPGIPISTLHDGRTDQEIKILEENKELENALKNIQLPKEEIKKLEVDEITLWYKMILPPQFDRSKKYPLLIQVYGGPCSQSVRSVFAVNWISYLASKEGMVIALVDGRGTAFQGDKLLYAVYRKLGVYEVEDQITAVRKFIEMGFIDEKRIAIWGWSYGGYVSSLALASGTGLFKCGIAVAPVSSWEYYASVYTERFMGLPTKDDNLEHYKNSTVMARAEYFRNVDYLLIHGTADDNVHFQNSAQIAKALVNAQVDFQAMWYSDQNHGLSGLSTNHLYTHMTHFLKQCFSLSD
Summary of the method: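 FAP (5 ng/well) preincubated 10 min at RT with peptide (10^−6 to 10^−12), then 50 μM Z-GP-AMC added for 1 h at RT, protected from light. Buffer 50 mM Tris-HCl, 1 M NaCl, 1 mg/mL BSA, pH 7.5; fluorescence at ex/em 360/460. IC50 from non-linear regression, converted to Ki via Cheng-Prusoff using known substrate Km.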

hFAP-HT1080 tumors = assay: Radiotherapeutic efficacy in human fibrosarcoma xenograft model; assay type: in vivo, athymic nude mice; conditions: 4.5-5.4 MBq over three fractionated doses, weight recorded over 70 days
Procedure: In vivo efficacy was determined in a sarcoma model where hFAP is expressed on the membrane of cancer cell surface. HT1080 cells engineered to express hFAP. 8 days prior to treatment, athymic nude mice were inoculated with approximately 2 million cells. The mice were then randomized by tumor size and divided into two groups for control and treatment. The treated group was treated with 4.5-5.4 MBq [^212Pb]-Pb-VMT-FAP-2-59 over three fractionated doses approximately 2 weeks apart. Two mice were treated a fourth time, at day 48 and day 53 with an additional 1.9-2.1MBq. Tumor volume was measured via caliper, and weight recorded over 70 days. […] Efficacy of VMT-FAP-2-59 in athymic nude mice bearing HT1080-FAP tumors. Tumor volume and weight was monitored over 70 days. The treatment group was given 4.5-5.4MBq ^212Pb-VMT-FAP-2-59 over 3 fractionated doses. Two mice with tumor recurrence were given an additional 1.9-2.1 MBq, as indicated by dashed arrows.

Row | Ki [1] | Compound | Treatment-related toxicity (hFAP-HT1080 tumors)
1 | 0.01 nM | C[C@@H](O)[C@@H]1NC(=O)[C@@H](NC(=O)CCOCCOCCOCCOCCNC(=O)CN2CCN(CC(=O)O)CCN(CC(N)=O)CCN(CC(=O)O)CC2)CSCc2ccccc2CSC[C@@H](C(N)=O)NC(=O)[C@H](Cc2c[nH]c3ccccc23)NC(=O)[C@H](Cc2c[nH]c3ccccc23)NC(=O)[C@H](CCC(N)=O)NC(=O)[C@H](CCC(=O)O)NC(=O)[C@H](Cc2c[nH]c3ccccc23)NC(=O)[C@@H]2CCCN2C1=O [VMT-FAP-2-69, PSC-PEG4-[C(oXdB)TPWEQWWC]-NH2] ({X1-PEG4}-CTPWEQWWC-NH2; linker 1-9 via oXylylene) | 
2 | 0.64 nM | C[C@@H](O)[C@@H]1NC(=O)[C@@H](NC(=O)CCCCCNC(=O)CN2CCN(CC(=O)O)CCN(CC(N)=O)CCN(CC(=O)O)CC2)CSCc2ccccc2CSC[C@@H](C(N)=O)NC(=O)[C@H](Cc2c[nH]c3ccccc23)NC(=O)[C@H](Cc2c[nH]c3ccccc23)NC(=O)[C@H](CCC(N)=O)NC(=O)[C@H](CCC(=O)O)NC(=O)[C@H](Cc2c[nH]c3ccccc23)NC(=O)[C@@H]2CCCN2C1=O [VMT-FAP-2-70, PSC-6AHA-[C(oXdB)TPWEQWWC]-NH2] ({X1-Ahx}-CTPWEQWWC-NH2; linker 1-9 via oXylylene) | 
3 | 6.66 nM | C[C@@H](O)[C@@H]1NC(=O)[C@@H](NC(=O)CCCCCCCCCCCNC(=O)CN2CCN(CC(=O)O)CCN(CC(N)=O)CCN(CC(=O)O)CC2)CSCc2ccccc2CSC[C@@H](C(N)=O)NC(=O)[C@H](Cc2c[nH]c3ccccc23)NC(=O)[C@H](Cc2c[nH]c3ccccc23)NC(=O)[C@H](CCC(N)=O)NC(=O)[C@H](CCC(=O)O)NC(=O)[C@H](Cc2c[nH]c3ccccc23)NC(=O)[C@@H]2CCCN2C1=O [VMT-FAP-2-74, PSC-12-Ado-[C(oXdB)TPWEQWWC]-NH2] ({X1-12Ado}-CTPWEQWWC-NH2; linker 1-9 via oXylylene) | 
4 | 1.26 nM | C[C@@H](O)[C@@H]1NC(=O)[C@@H](NC(=O)CCCCCNC(=O)CN2CCN(CC(=O)O)CCN(CC(N)=O)CCN(CC(=O)O)CC2)CSCc2ccccc2CSC[C@@H](C(=O)O)NC(=O)[C@H](Cc2c[nH]c3ccccc23)NC(=O)[C@H](Cc2c[nH]c3ccccc23)NC(=O)[C@H](CCC(N)=O)NC(=O)[C@H](CCC(=O)O)NC(=O)[C@H](Cc2c[nH]c3ccccc23)NC(=O)[C@@H]2CCCN2C1=O [VMT-FAP-2-75, PSC-6AHA-[C(oXdB)TPWEQWWC]-COOH] ({X1-Ahx}-CTPWEQWWC-OH; linker 1-9 via oXylylene) | 
5 | 31.4 nM | C[C@@H](O)[C@@H]1NC(=O)[C@@H](NC(=O)CCOCCOCCNC(=O)CN2CCN(CC(=O)O)CCN(CC(N)=O)CCN(CC(=O)O)CC2)CSCc2ccccc2CSC[C@@H](C(=O)O)NC(=O)[C@H](Cc2c[nH]c3ccccc23)NC(=O)[C@H](Cc2c[nH]c3ccccc23)NC(=O)[C@H](CCC(N)=O)NC(=O)[C@H](CCC(=O)O)NC(=O)[C@H](Cc2c[nH]c3ccccc23)NC(=O)[C@@H]2CCCN2C1=O [VMT-FAP-2-76, PSC-PEG2-[C(oXdB)TPWEQWWC]-COOH] ({X1-PEG2}-CTPWEQWWC-OH; linker 1-9 via oXylylene) | 
6 | 0.01 nM | C[C@@H](O)[C@@H]1NC(=O)[C@@H](NC(=O)CCOCCOCCNC(=O)CN2CCN(CC(=O)O)CCN(CC(=O)O)CC2)CSCc2ccccc2CSC[C@@H](C(N)=O)NC(=O)[C@H](Cc2c[nH]c3ccccc23)NC(=O)[C@H](Cc2c[nH]c3ccccc23)NC(=O)[C@H](CCC(N)=O)NC(=O)[C@H](CCC(=O)O)NC(=O)[C@H](Cc2c[nH]c3ccccc23)NC(=O)[C@@H]2CCCN2C1=O [VMT-FAP-2-78, NOTA-PEG2-[C(oXdB)TPWEQWWC]-NH2] ({NOTA-PEG2}-CTPWEQWWC-NH2; linker 1-9 via oXylylene) | 
7 | 2.68 nM | C[C@@H](O)[C@@H]1NC(=O)[C@@H](NC(=O)CCOCCOCCNC(=O)CN2CCN(CC(=O)O)CCN(CC(N)=O)CCN(CC(=O)O)CC2)CSCc2ccc(cc2)CSC[C@@H](C(N)=O)NC(=O)[C@H](Cc2c[nH]c3ccccc23)NC(=O)[C@H](Cc2c[nH]c3ccccc23)NC(=O)[C@H](CCC(N)=O)NC(=O)[C@H](CCC(=O)O)NC(=O)[C@H](Cc2c[nH]c3ccccc23)NC(=O)[C@@H]2CCCN2C1=O [VMT-FAP-2-82, PSC-PEG2-[C(pXdB)TPWEQWWC]-NH2] ({X1-PEG2}-CTPWEQWWC-NH2; linker 1-9 via pXylylene) | 
8 | 0.54 nM | C[C@@H](O)[C@@H]1NC(=O)[C@@H](NC(=O)CCOCCOCCNC(=O)CN2CCN(CC(=O)O)CCN(CC(N)=O)CCN(CC(=O)O)CC2)CSCc2cccc(c2)CSC[C@@H](C(N)=O)NC(=O)[C@H](Cc2c[nH]c3ccccc23)NC(=O)[C@H](Cc2c[nH]c3ccccc23)NC(=O)[C@H](CCC(N)=O)NC(=O)[C@H](CCC(=O)O)NC(=O)[C@H](Cc2c[nH]c3ccccc23)NC(=O)[C@@H]2CCCN2C1=O [VMT-FAP-2-83, PSC-PEG2-[C(mXdB)TPWEQWWC]-NH2] ({X1-PEG2}-CTPWEQWWC-NH2; linker 1-9 via mXylylene) | 
9 | 115 nM | C[C@@H](O)[C@@H]1NC(=O)[C@@H]2CCCN2C(=O)[C@H](Cc2c[nH]c3ccccc23)NC(=O)[C@H](CCC(=O)O)NC(=O)[C@H](CCC(N)=O)NC(=O)[C@H](Cc2c[nH]c3ccccc23)NC(=O)[C@H](Cc2c[nH]c3ccccc23)NC(=O)[C@@H](NC(=O)CCOCCOCCNC(=O)CN2CCN(CC(=O)O)CCN(CC(N)=O)CCN(CC(=O)O)CC2)CSCc2ccccc2CSC[C@@H](C(=O)N[C@@H](CO)C(N)=O)NC1=O [VMT-FAP-2-84, PSC-PEG2-[C(oXdB)WWQEWPTC]S-NH2] ({X1-PEG2}-CWWQEWPTCS-NH2; linker 1-9 via oXylylene) | 
10 |  | C[C@@H](O)[C@@H]1NC(=O)[C@@H](NC(=O)CCOCCOCCNC(=O)CN2CCN(CC(=O)O)CCN(CC(N)=O)CCN(CC(=O)O)CC2)CSCc2ccccc2CSC[C@@H](C(N)=O)NC(=O)[C@H](Cc2c[nH]c3ccccc23)NC(=O)[C@H](Cc2c[nH]c3ccccc23)NC(=O)[C@H](CCC(N)=O)NC(=O)[C@H](CCC(=O)O)NC(=O)[C@H](Cc2c[nH]c3ccccc23)NC(=O)[C@@H]2CCCN2C1=O [[^212Pb]VMT-FAP-2-59, metal not drawn] ({X1-PEG2}-CTPWEQWWC-NH2; linker 1-9 via oXylylene) | No treatment-related toxicity was observed
11 | 4.59 nM | NODA-PEG2-[C(oXdB)TPWEQWWC]-NH2 [VMT-FAP-2-77] | 
12 | 0.79 nM | PSC-Bn-NCS-PEG1-[C(oXdB)TPWEQWWC]-NH2 [VMT-FAP-2-72] | 
13 | 3.61 nM | PSC-Bn-NCS-PEG2-[C(oXdB)TPWEQWWC]-NH2 [VMT-FAP-2-73] | 
